Key:
[1] = molecular target: T1, Peroxisome proliferator-activated receptor gamma (Homo sapiens, UniProt P37231); type: cell-based, 293T; conditions: read-out: EC50
T1 sequence (P37231 whole entry): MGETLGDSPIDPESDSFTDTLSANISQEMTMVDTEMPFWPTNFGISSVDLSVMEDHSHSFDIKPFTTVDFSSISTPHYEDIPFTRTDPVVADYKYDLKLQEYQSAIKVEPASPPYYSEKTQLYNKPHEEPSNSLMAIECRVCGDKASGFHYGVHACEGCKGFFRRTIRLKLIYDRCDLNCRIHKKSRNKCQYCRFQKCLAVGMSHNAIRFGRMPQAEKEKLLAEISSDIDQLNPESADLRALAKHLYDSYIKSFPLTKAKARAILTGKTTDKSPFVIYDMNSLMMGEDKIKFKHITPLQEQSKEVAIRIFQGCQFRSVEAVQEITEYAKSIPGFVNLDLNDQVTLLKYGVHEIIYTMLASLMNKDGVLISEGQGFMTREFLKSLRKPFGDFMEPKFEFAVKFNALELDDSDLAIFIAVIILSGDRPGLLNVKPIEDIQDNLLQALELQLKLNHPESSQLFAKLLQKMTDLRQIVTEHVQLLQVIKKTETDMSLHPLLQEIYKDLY

[2] = Half life in Balb/c mouse at 10 mg/kg, po qd; conditions: in vivo
[3] = Oral bioavailability in Balb/c mouse at 10 mg/kg daily; conditions: in vivo
[4] = molecular target: Peroxisome proliferator-activated receptor delta (Homo sapiens) (UniProt Q03181); assay: Agonist activity at human PPARdelta by FRET assay
[5] = molecular target: T2, Peroxisome proliferator-activated receptor alpha (Homo sapiens, UniProt Q07869); assay: Agonist activity at human PPARalpha ligand binding domain expressed in human 293T cells co-transfected with Gal4-DBD by luciferase transactivation assay; type: cell-based; conditions: read-out: EC50
T2 sequence (Q07869 whole entry): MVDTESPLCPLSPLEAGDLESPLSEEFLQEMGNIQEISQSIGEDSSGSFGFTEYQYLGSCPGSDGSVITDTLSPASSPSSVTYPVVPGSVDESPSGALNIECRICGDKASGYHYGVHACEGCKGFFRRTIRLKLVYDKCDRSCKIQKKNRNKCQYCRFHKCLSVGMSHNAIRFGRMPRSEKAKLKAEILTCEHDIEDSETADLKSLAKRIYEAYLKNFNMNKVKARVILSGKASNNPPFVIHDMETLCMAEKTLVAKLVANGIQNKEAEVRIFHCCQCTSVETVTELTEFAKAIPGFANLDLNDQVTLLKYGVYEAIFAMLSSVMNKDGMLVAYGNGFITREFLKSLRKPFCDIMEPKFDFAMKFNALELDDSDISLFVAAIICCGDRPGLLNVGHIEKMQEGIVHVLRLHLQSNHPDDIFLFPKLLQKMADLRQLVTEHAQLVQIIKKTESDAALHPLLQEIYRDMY

[6] = molecular target: T3, Peroxisome proliferator-activated receptor alpha (Homo sapiens) (UniProt Q07869); assay: Agonist activity at human PPARalpha ligand binding domain expressed in human 293T cells co-transfected with Gal4-DBD by luciferase transactivation assay relative to KRP297; type: cell-based
T3 sequence (whole entry): T2 sequence (Q07869 whole entry)

[7] = tested on: Mus musculus; assay: Upregulation of PDK4 expression in C57BL/6 mouse at 10 mg/kg, po qd relative to control; type: functional
[8] = Cmax in Balb/c mouse at 10 mg/kg, po qd; conditions: in vivo
[9] = molecular target: T4, Peroxisome proliferator-activated receptor delta (Homo sapiens, UniProt Q03181)
T4 sequence (Q03181 whole entry): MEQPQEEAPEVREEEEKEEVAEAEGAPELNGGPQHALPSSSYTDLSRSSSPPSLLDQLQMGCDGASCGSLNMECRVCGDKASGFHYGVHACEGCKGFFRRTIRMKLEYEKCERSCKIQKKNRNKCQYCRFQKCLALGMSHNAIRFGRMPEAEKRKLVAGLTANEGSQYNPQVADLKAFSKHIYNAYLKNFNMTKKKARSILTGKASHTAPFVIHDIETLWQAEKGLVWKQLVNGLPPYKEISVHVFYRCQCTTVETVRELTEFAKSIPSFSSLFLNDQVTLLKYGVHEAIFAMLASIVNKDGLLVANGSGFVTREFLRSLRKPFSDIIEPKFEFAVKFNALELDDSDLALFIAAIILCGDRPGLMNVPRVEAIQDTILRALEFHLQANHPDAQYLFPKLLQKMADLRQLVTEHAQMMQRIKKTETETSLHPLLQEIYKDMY

[10] = molecular target: T4, Peroxisome proliferator-activated receptor delta; remark: listed apart in the source
[11] = tested on: Mus musculus; assay: Upregulation of UCP3 expression in C57BL/6 mouse at 10 mg/kg, po qd relative to control; type: functional
[12] = AUC ((0 to 24 hrs)) in Balb/c mouse at 10 mg/kg, po qd; conditions: plasma

Structure (SMILES)	EC50 [1] [µM]	half-life [2] [h]	bioavailability [3] [%]	EC50 [4] [µM]	EC50 [5] [µM]	Efficacy [6] [%]	fold change (FC) [7]	Cmax [8] [µM]	EC50 [9] [µM]	EC50 [10] [µM]	fold change (FC) [11]	AUC at 24 h [12] [µM·h]
Cc1cc(OCc2nc(-c3ccc(OC(C)C)cc3)c(-c3ccc(OC(F)(F)F)cc3)o2)ccc1OCC(=O)O	> 10	5.1	129	0.009	2.6	43	2.3	7.8	0.003	0.013	2.2	104
COc1ccc(-c2nc(COc3ccc(OCC(=O)O)c(C)c3)oc2-c2ccc(OC(F)(F)F)cc2)cn1	> 10	2.5	89	0.097	> 10		1.2	13.7	0.008	0.01	1.4	96.8
Cc1cc(OCc2nc(-c3ccc(OC(C)C)nc3)c(-c3ccc(OC(F)(F)F)cc3)o2)ccc1OCC(=O)O	70	5.3	144	0.007	0.79	20	1.5	9.1	2.49	0.014	2.5	95.8
Cc1cc(OCc2nc(-c3ccc(OC4CCCC4)cc3)c(-c3ccc(OC(F)(F)F)cc3)s2)ccc1OCC(=O)O	> 10	7.6	19	0.031	> 10		1.9	1.2	0.01	0.015	2.8	16.1
Cc1cc(OCc2nc(-c3ccc(OC(C)C)nc3)c(-c3ccc(OC(F)(F)F)cc3)s2)ccc1OCC(=O)O	> 10	10.8	72	0.013	> 10		1.9	4.7	0.008	0.012	2.9	62.9
COc1ccc(-c2nc(COc3ccc(OCC(=O)O)c(C)c3)sc2-c2ccc(OC(F)(F)F)cc2)cn1	> 10	4.6	140	0.09	> 10		1.9	17.3	0.017	0.012	2.5	196
Cc1cc(OCc2nc(-c3ccc(OC4CCCC4)cc3)c(-c3ccc(OC(F)(F)F)cc3)o2)ccc1OCC(=O)O	> 10	3.1	35	0.009	0.91	56	2.1	2.4	0.004	0.012	2.5	23.3

Source: ChEMBL document CHEMBL1153748 (J Med Chem, 2010)
